Patent US20230150974A1 (Foghorn Therapeutics Inc., priority 2020, published 2023)
Counter-ions that a name gives are not always drawn.

What was measured:
HiBiT-BRM = molecular target: T1, HiBiT-BRM (Homo sapiens, UniProt P51531); test: HiBiT-BRM cell-based degradation assay (Nano-Glo HiBiT Lytic Detection); conditions: HeLa cells expressing HiBiT-BRM, 24 h; for DC50: read-out: BRM HiBit Degradation IC50
T1 construct: expressed in transfected cells
Experimental: (§1) Procedure: A stable HeLa cell line expressing HiBiT-BRM was generated. On day 0, 5000 cells were seeded in 40 μL of media into each well of 384-well cell culture plates. […] Subsequently plates were incubated for 24 h in a standard tissue culture incubator and equilibrated at room temperature for 15 minutes. Nano-Glo HiBiT Lytic Detection System (Promega N3050) reagent was freshly prepared and 20 ul was added to each well. Upon addition of this LgBit-containing reagent, the HiBiT and LgBiT proteins associate to form the luminescent NanoBiT luciferase. The plates were shaken for 10 minutes at room temperature and the bioluminescence read using an EnVision plate reader (PerkinElmer).
(§2) The degradation % was calculated using the following formula: % degradation=100%−100%×(LumSample−LumLC)/(LumHC−LumLC). DMSO treated cells are employed as High Control (HC) and 2 μM of a known BRM/BRG1 degrader standard treated cells are employed as Low Control (LC).

HiBit-BRG1 = molecular target: T2, HiBit-BRG1 (Homo sapiens, UniProt P51532); test: HiBit-BRG1 cell-based degradation assay (Nano-Glo HiBiT Lytic Detection); conditions: HeLa cells expressing HiBit-BRG1 and LgBit, 24 h; for DC50: read-out: BRG1 HiBit Degradation IC50; for Dmax: read-out: BRG1 HiBit Degradation Maximum (%)
T2 construct: expressed in transfected cells
Experimental: as §1
For measurement of BRG1 degradation, a stable HeLa cell line expressing HiBit-BRG1 and LgBit was generated. The same protocol as above was then followed.
as §2

T2 sequence (P51532 whole entry): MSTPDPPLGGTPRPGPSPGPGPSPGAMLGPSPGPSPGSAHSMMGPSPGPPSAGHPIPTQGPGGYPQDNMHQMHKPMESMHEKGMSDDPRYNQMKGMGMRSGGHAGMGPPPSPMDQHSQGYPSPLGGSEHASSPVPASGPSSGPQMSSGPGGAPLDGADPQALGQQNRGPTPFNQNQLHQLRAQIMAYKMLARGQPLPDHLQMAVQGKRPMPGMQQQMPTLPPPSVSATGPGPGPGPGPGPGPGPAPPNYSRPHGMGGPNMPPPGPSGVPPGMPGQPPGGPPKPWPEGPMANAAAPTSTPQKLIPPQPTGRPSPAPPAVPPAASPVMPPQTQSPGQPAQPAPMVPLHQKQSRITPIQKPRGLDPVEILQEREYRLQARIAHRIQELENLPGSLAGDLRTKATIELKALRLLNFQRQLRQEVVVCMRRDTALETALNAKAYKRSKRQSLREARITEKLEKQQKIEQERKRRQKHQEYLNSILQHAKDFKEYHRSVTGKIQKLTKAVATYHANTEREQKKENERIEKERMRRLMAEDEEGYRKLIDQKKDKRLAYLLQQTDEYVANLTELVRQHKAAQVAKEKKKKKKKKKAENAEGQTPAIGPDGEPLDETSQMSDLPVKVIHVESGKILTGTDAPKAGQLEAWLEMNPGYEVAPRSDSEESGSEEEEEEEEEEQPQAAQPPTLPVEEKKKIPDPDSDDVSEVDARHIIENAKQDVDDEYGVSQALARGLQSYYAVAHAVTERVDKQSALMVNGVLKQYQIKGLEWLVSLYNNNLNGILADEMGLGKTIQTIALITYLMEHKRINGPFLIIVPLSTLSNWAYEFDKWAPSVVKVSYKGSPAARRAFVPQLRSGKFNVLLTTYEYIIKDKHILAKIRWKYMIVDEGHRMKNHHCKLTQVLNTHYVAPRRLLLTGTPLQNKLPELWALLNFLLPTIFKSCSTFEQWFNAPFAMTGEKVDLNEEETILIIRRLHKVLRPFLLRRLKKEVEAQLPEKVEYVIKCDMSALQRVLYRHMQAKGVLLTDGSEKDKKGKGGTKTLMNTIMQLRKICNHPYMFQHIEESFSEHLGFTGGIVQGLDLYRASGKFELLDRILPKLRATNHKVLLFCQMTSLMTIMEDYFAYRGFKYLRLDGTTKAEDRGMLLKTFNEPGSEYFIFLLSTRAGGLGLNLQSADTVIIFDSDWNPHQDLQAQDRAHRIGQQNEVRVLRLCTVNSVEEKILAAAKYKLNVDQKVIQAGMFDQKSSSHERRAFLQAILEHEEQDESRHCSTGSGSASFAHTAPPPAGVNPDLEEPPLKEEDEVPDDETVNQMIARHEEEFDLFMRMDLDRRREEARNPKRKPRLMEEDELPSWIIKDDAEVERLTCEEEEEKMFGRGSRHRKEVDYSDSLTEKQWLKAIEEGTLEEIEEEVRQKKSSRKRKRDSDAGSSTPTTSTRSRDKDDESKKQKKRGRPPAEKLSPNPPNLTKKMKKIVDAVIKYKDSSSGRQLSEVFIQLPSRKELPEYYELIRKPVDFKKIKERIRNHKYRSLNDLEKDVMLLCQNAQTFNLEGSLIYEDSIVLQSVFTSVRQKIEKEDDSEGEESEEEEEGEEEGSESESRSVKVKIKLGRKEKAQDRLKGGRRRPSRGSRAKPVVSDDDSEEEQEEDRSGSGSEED
T1 sequence (P51531 whole entry): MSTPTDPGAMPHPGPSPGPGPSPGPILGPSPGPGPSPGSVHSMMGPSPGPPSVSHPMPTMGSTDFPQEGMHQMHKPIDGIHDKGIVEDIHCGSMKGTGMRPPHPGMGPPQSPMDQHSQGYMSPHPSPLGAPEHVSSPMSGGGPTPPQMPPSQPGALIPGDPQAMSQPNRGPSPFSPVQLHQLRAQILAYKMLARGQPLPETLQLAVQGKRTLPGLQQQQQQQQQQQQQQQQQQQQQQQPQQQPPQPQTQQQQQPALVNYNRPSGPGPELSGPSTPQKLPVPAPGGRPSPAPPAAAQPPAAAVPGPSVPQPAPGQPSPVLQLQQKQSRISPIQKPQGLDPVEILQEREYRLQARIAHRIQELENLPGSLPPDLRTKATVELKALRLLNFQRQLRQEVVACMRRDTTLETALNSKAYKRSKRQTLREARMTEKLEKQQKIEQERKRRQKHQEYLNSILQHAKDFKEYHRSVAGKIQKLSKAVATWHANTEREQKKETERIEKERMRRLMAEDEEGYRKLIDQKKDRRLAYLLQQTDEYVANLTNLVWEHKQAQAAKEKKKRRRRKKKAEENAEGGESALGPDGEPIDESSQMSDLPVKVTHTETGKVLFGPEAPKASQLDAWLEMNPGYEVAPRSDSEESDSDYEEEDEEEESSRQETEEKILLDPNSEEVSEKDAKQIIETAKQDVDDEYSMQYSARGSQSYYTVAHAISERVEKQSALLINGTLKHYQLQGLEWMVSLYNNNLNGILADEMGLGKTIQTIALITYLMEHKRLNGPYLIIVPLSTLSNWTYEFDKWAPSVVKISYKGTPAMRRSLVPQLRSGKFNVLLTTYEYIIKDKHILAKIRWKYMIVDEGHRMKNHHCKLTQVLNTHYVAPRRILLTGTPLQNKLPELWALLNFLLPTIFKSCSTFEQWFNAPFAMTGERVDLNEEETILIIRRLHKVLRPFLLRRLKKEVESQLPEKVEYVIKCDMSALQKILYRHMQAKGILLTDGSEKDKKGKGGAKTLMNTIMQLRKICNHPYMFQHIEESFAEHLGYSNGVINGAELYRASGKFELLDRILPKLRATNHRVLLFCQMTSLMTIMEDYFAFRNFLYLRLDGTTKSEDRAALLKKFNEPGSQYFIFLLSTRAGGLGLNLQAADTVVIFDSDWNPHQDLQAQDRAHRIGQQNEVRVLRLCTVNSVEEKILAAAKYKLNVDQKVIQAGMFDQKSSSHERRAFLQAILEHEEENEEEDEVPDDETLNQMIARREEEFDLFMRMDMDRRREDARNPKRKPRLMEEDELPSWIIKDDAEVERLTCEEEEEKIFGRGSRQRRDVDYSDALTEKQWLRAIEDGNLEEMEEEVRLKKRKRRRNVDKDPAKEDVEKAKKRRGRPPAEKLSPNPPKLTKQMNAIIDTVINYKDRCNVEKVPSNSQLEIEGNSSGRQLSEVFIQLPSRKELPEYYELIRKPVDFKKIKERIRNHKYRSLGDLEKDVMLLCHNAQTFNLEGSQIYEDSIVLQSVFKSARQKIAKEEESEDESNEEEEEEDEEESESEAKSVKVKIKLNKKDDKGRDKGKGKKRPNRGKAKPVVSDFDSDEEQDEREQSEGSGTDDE

SMILES | DC50 (HiBiT-BRM) [nM] | DC50 (HiBit-BRG1) [nM] | Dmax (HiBit-BRG1) [%] | BRM HiBit Degradation Maximum (%) (HiBiT-BRM)
Cc1ncsc1-c1ccc(CNC(=O)[C@@H]2C[C@@H](O)CN2C(=O)[C@@H](NC(=O)CCCCCCCCCCCCCCCC(=O)N(C)Cc2ccc(CCOc3cc(-c4ccccc4O)nnc3N)cc2)C(C)(C)C)cc1 [Compound 228, N1-(4-(2-((3-amino-6-(2-hydroxyphenyl)pyridazin-4-yl)oxy)ethyl)benzyl)-N17-((S)-1-((2S,4R)-4-hydroxy-2-((4-(4-methylthiazol-5-yl)benzyl)carbamoyl)pyrrolidin-1-yl)-3,3-dimethyl-1-oxobutan-2-yl)-N1-methylheptadecanediamide] | > 100 | > 100 | > 75 | A (“A” indicates maximum degradation ≥75%)
Nc1nnc(-c2ccccc2O)cc1OCCc1ccc(CNC(=O)CCCCOc2ccc3c(c2)CN(C2CCC(=O)NC2=O)C3=O)cc1 (stereo not drawn) [Compound 129, N-(4-(2-((3-amino-6-(2-hydroxyphenyl)pyridazin-4-yl)oxy)ethyl)benzyl)-5-((2-(2,6-dioxopiperidin-3-yl)-1-oxoisoindolin-5-yl)oxy)pentanamide] | > 1000 | > 1000 | – | C (“C” indicates maximum degradation <50%)
Cc1ncsc1-c1ccc(CNC(=O)[C@@H]2C[C@@H](O)CN2C(=O)[C@@H](NC(=O)CCN2C[C@H]3CC[C@@H](C2)N3C(=O)c2ccc(CCOc3cc(-c4ccccc4O)nnc3N)cc2)C(C)(C)C)cc1 [Compound 226, (2S,4R)-1-((2S)-2-(3-(8-(4-(2-((3-amino-6-(2-hydroxyphenyl)pyridazin-4-yl)oxy)ethyl)benzoyl)-3,8-diazabicyclo[3.2.1]octan-3-yl)propanamido)-3,3-dimethylbutanoyl)-4-hydroxy-N-(4-(4-methylthiazol-5-yl)benzyl)pyrrolidine-2-carboxamide] | > 1000 | > 1000 | < 50 | B (“B” indicates maximum degradation ≥50%)
CN(CCCCCNc1cccc2c1C(=O)N(C1CCC(=O)NC1=O)C2=O)Cc1ccc(CCOc2cc(-c3ccccc3O)nnc2N)cc1 (stereo not drawn) [Compound 156, 4-((5-((4-(2-((3-amino-6-(2-hydroxyphenyl)pyridazin-4-yl)oxy)ethyl)benzyl)(methyl)amino)pentyl)amino)-2-(2,6-dioxopiperidin-3-yl)isoindoline-1,3-dione formate] | > 10 | < 10 | > 50 | B (“B” indicates maximum degradation ≥50%)
Cc1ncsc1-c1ccc([C@H](C)NC(=O)[C@@H]2C[C@@H](O)CN2C(=O)[C@@H](c2cc(OCCNCc3ccc(CCOc4cc(-c5ccccc5O)nnc4N)cc3)no2)C(C)C)cc1 [Compound 205, (2S,4R)-1-[(2R)-2-[3-[2-([[4-(2-[[3-amino-6-(2-hydroxyphenyl)pyridazin-4-yl]oxy]ethyl)phenyl]methyl]amino)ethoxy]-1,2-oxazol-5-yl]-3-methylbutanoyl]-4-hydroxy-N-[(1S)-1-[4-(4-methyl-1,3-thiazol-5-yl)phenyl]ethyl]pyrrolidine-2-carboxamide] | < 10 | > 100 | > 75 | A (“A” indicates maximum degradation ≥75%)
Nc1nnc(-c2ccccc2O)cc1OCCc1ccc(CNC(=O)CCCCOc2ccc3c(c2)C(=O)N(C2CCC(=O)NC2=O)C3)cc1 (stereo not drawn) [Compound 128, N-(4-(2-((3-amino-6-(2-hydroxyphenyl)pyridazin-4-yl)oxy)ethyl)benzyl)-5-((2-(2,6-dioxopiperidin-3-yl)-3-oxoisoindolin-5-yl)oxy)pentanamide] | > 1000 | > 1000 | – | C (“C” indicates maximum degradation <50%)

Further lines, with some results ahead:

DC50 (HiBiT-BRM) [nM] | DC50 (HiBit-BRG1) [nM] | Dmax (HiBit-BRG1) [%] | SMILES | BRM HiBit Degradation Maximum (%) (HiBiT-BRM)
> 100 | > 1000 | < 50 | Cc1ncsc1-c1ccc([C@H](C)NC(=O)[C@@H]2C[C@@H](O)CN2C(=O)[C@@H](c2cc(OCCNCCCCC(=O)NCc3ccc(CCOc4cc(-c5ccccc5O)nnc4N)cc3)no2)C(C)C)cc1 [Compound 218, (2S,4R)-1-((R)-2-(3-(2-((5-((4-(2-((3-amino-6-(2-hydroxyphenyl)pyridazin-4-yl)oxy)ethyl)benzyl)amino)-5-oxopentyl)amino)ethoxy)isoxazol-5-yl)-3-methylbutanoyl)-4-hydroxy-N-((S)-1-(4-(4-methylthiazol-5-yl)phenyl)ethyl)pyrrolidine-2-carboxamide] | B (“B” indicates maximum degradation ≥50%)
> 100 | > 1000 | < 50 | Cc1ncsc1-c1ccc([C@H](C)NC(=O)[C@@H]2C[C@@H](O)CN2C(=O)[C@@H](c2cc(OCCNCCCCCCCCC(=O)NCc3ccc(CCOc4cc(-c5ccccc5O)nnc4N)cc3)no2)C(C)C)cc1 [Compound 239, (2S,4R)-1-((R)-2-(3-(2-((9-((4-(2-((3-amino-6-(2-hydroxyphenyl)pyridazin-4-yl)oxy)ethyl)benzyl)amino)-9-oxononyl)amino)ethoxy)isoxazol-5-yl)-3-methylbutanoyl)-4-hydroxy-N-((S)-1-(4-(4-methylthiazol-5-yl)phenyl)ethyl)pyrrolidine-2-carboxamide] | A (“A” indicates maximum degradation ≥75%)
> 1000 | > 1000 | < 50 | Cc1ncsc1-c1ccc(CNC(=O)[C@H]2C[C@H](O)CN2C(=O)[C@H](NC(=O)COCCOCCOCCNC(=O)c2ccc(CCOc3cc(-c4ccccc4O)nnc3N)cc2)C(C)(C)C)cc1 (stereo in doubt) [Compound 60, (2R,4S)-1-[(2R)-2-(2-[2-[2-(2-[[4-(2-[[3-amino-6-(2-hydroxyphenyl)pyridazin-4-yl]oxy]ethyl)phenyl]formamido]ethoxy)ethoxy]ethoxy]acetamido)-3,3-dimethylbutanoyl]-4-hydroxy-N-[[4-(4-methyl-1,3-thiazol-5-yl)phenyl]methyl]pyrrolidine-2-carboxamide] | B (“B” indicates maximum degradation ≥50%)
> 10 | > 1000 | < 50 | Cc1ncsc1-c1ccc([C@H](C)NC(=O)[C@@H]2C[C@@H](O)CN2C(=O)[C@@H](NC(=O)CCCCCCCCCCCCC(=O)NCc2ccc(CCOc3cc(-c4ccccc4O)nnc3N)cc2)C(C)(C)C)cc1 [Compound 248, N1-(4-(2-((3-amino-6-(2-hydroxyphenyl)pyridazin-4-yl)oxy)ethyl)benzyl)-N14-((S)-1-((2S,4R)-4-hydroxy-2-(((S)-1-(4-(4-methylthiazol-5-yl)phenyl)ethyl)carbamoyl)pyrrolidin-1-yl)-3,3-dimethyl-1-oxobutan-2-yl)tetradecanediamide] | A (“A” indicates maximum degradation ≥75%)
> 100 | > 1000 | < 50 | Cc1ncsc1-c1ccc(CNC(=O)[C@@H]2C[C@@H](O)CN2C(=O)[C@@H](NC(=O)CCCCCCCNC(=O)c2ccc(CCOc3cc(-c4ccccc4O)nnc3N)cc2)C(C)(C)C)cc1 [Compound 57, (2S,4R)-1-[(2S)-2-(8-[[4-(2-[[3-amino-6-(2-hydroxyphenyl)pyridazin-4-yl]oxy]ethyl)phenyl]formamido]octanamido)-3,3-dimethylbutanoyl]-4-hydroxy-N-[[4-(4-methyl-1,3-thiazol-5-yl)phenyl]methyl]pyrrolidine-2-carboxamide] | B (“B” indicates maximum degradation ≥50%)
> 100 | > 1000 | < 50 | Cc1ncsc1-c1ccc(CNC(=O)[C@@H]2C[C@@H](O)CN2C(=O)[C@@H](NC(=O)CCCCCCCCCCCCCCCC(=O)NCc2ccc(CCN(C)c3cc(-c4ccccc4O)nnc3N)cc2)C(C)(C)C)cc1 [Compound 133, N1-(4-(2-((3-amino-6-(2-hydroxyphenyl)pyridazin-4-yl)(methyl)amino)ethyl)benzyl)-N17-((S)-1-((2S,4R)-4-hydroxy-2-((4-(4-methylthiazol-5-yl)benzyl)carbamoyl)pyrrolidin-1-yl)-3,3-dimethyl-1-oxobutan-2-yl)heptadecanediamide] | B (“B” indicates maximum degradation ≥50%)
> 1000 | > 1000 | < 50 | Cc1ncsc1-c1ccc(CNC(=O)[C@@H]2C[C@@H](O)CN2C(=O)[C@@H](NC(=O)COCCOCCOCCOCC(=O)NCc2ccc(CCOc3cc(-c4ccccc4O)nnc3N)cc2)C(C)(C)C)cc1 [Compound 39] | C (“C” indicates maximum degradation <50%)
> 1000 | > 1000 | < 50 | Cc1ncsc1-c1ccc([C@H](C)NC(=O)[C@@H]2C[C@@H](O)CN2C(=O)[C@@H](c2cc(OCCNCCCCCCC(=O)NCc3ccc(CCOc4cc(-c5ccccc5O)nnc4N)cc3)no2)C(C)C)cc1 [Compound 229, (2S,4R)-1-((R)-2-(3-(2-((7-((4-(2-((3-amino-6-(2-hydroxyphenyl)pyridazin-4-yl)oxy)ethyl)benzyl)amino)-7-oxoheptyl)amino)ethoxy)isoxazol-5-yl)-3-methylbutanoyl)-4-hydroxy-N-((S)-1-(4-(4-methylthiazol-5-yl)phenyl)ethyl)pyrrolidine-2-carboxamide] | B (“B” indicates maximum degradation ≥50%)
